For 24 compounds, TGI and GI50 results are on record in PubChem BioAssay (NCI).

Test systems include OVCAR-5 ovarian; EKVX NSCLC; HL-60(TB) leukemia; OVCAR-3 ovarian; SF-539 CNS; SK-MEL-2 melanoma; IGROV1 ovarian; HCC-2998 colon.
Assay in all cases: growth of human tumour cells (NCI), 48 h

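Briefly, cells in 96-well plates were exposed to five compound concentrations for 48 h, and endpoints were estimated by linear interpolation. GI50 is the concentration that inhibits growth by half. TGI is the concentration that stops growth completely.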 A value given as a limit tells only on which side of the number the result lay.

Regarding `O/N=C1/C(=C/c2ccccc2)CCCC1C(NO)c1ccccc1` (stereo not given), the TGI in the experiment with OVCAR-5 ovarian is greater than 100 µM; with EKVX NSCLC, greater than 100 µM; in the experiment on HL-60(TB) leukemia it was 5.03 µM; in the experiment on OVCAR-3 ovarian, greater than 100 µM; in the experiment on SF-539 CNS, greater than 100 µM; with SK-MEL-2 melanoma, greater than 100 µM. The same compound showed a TGI in the experiment on IGROV1 ovarian greater than 100 µM.

For `C[n+]1ccc2[nH]c3ccccc3c2c1`, the TGI in the experiment with HCC-2998 colon, in the experiment with OVCAR-5 ovarian, in the experiment with EKVX NSCLC, in the experiment with HL-60(TB) leukemia, in the experiment on OVCAR-3 ovarian and in the experiment with SF-539 CNS was greater than 100 µM in each case. The TGI in the experiment with SK-MEL-2 melanoma and in the experiment on IGROV1 ovarian was greater than 100 µM in each case.

For the compound `CN(/C(=N\O)c1ccccc1)c1ccccc1`, the TGI was 73.5 µM in the experiment on HCC-2998 colon; greater than 100 µM in the experiment on OVCAR-5 ovarian; 74.3 µM in the experiment on EKVX NSCLC; 48.7 µM in the experiment on HL-60(TB) leukemia; 59.2 µM in the experiment with OVCAR-3 ovarian; 49.6 µM in the experiment on SF-539 CNS. The TGI in the experiment with SK-MEL-2 melanoma turned out to be 70.1 µM.

As for `N=C(N)Cn1cnc2ccccc21`, the TGI in the experiment with HCC-2998 colon, in the experiment with OVCAR-5 ovarian, with EKVX NSCLC, in the experiment with HL-60(TB) leukemia, in the experiment with OVCAR-3 ovarian and with SF-539 CNS was greater than 100 µM throughout. Moreover, the TGI in the experiment on SK-MEL-2 melanoma and in the experiment with IGROV1 ovarian was greater than 100 µM throughout.

`CN(C(=O)C1CC1)C1C2CN3CCC(O2)C13` (stereo not given): the TGI in the experiment on HCC-2998 colon, in the experiment on OVCAR-5 ovarian, with EKVX NSCLC, with HL-60(TB) leukemia, in the experiment on OVCAR-3 ovarian and with SF-539 CNS was greater than 100 µM in each case. Moreover, the TGI with SK-MEL-2 melanoma and in the experiment with IGROV1 ovarian was greater than 100 µM in each case.

As for `CCC[CH2][Sn]1([CH2]CCC)[O]CC([CH2][Sn]([c]2ccccc2)([c]2ccccc2)[c]2ccccc2)[O]1` (stereo not given), the GI50 in the experiment with HCC-2998 colon is 10.2 µM; in the experiment with OVCAR-5 ovarian it was 17 µM; in the experiment on EKVX NSCLC it was 13.4 µM; in the experiment on HL-60(TB) leukemia, 2.47 µM; in the experiment with OVCAR-3 ovarian, 14.9 µM; with SF-539 CNS, 15 µM. The GI50 in the experiment on SK-MEL-2 melanoma is 10.9 µM; in the experiment on IGROV1 ovarian, 15.2 µM. The TGI in the experiment on HCC-2998 colon is 22.4 µM; in the experiment on OVCAR-5 ovarian, 31 µM; in the experiment with EKVX NSCLC it was 26.3 µM; with HL-60(TB) leukemia it was 8.38 µM; with OVCAR-3 ovarian it was 29.9 µM; in the experiment on SF-539 CNS, 28.3 µM. The TGI with SK-MEL-2 melanoma was determined as 23.4 µM; in the experiment with IGROV1 ovarian, 29.2 µM.

Regarding `CC(=O)[CH-]C(=O)c1ccccc1.CC(=O)[CH-]C(=O)c1ccccc1.CC[O-].O=C1C=C([O-])C(=O)c2ccccc21.[Ti+4]`, the GI50 was 23.1 µM with HCC-2998 colon; 95.3 µM in the experiment on OVCAR-5 ovarian; 25.9 µM with EKVX NSCLC; 16.1 µM with HL-60(TB) leukemia; 42.6 µM in the experiment with OVCAR-3 ovarian; greater than 100 µM in the experiment with SF-539 CNS. In addition, the GI50 in the experiment on SK-MEL-2 melanoma is 9.07 µM; in the experiment with IGROV1 ovarian it was greater than 100 µM. The TGI in the experiment on HCC-2998 colon was greater than 100 µM; with OVCAR-5 ovarian, greater than 100 µM; with EKVX NSCLC it was greater than 100 µM; with HL-60(TB) leukemia, 80 µM; in the experiment on OVCAR-3 ovarian it was greater than 100 µM; in the experiment on SF-539 CNS, greater than 100 µM. In addition, the TGI in the experiment with SK-MEL-2 melanoma is 86.3 µM; in the experiment with IGROV1 ovarian it was greater than 100 µM.

As to `CCCCCC/C=C/CCCCCCCc1cccc(O)c1C(=O)O`, the TGI with OVCAR-5 ovarian, in the experiment with EKVX NSCLC, in the experiment with HL-60(TB) leukemia, in the experiment with OVCAR-3 ovarian, in the experiment with SF-539 CNS and in the experiment on SK-MEL-2 melanoma was greater than 100 µM in each case. The compound also gave a TGI in the experiment on IGROV1 ovarian greater than 100 µM.

For `NC(=O)N/N=C1/CCCC/C1=C\c1ccccc1`, the TGI in the experiment with HCC-2998 colon, in the experiment with OVCAR-5 ovarian, with EKVX NSCLC, in the experiment with HL-60(TB) leukemia, in the experiment on OVCAR-3 ovarian and with SF-539 CNS was greater than 100 µM in each case. The TGI in the experiment with SK-MEL-2 melanoma and in the experiment on IGROV1 ovarian was greater than 100 µM throughout.

With `Cn1c(=O)c2[nH]cnc2n(CC(=O)O)c1=O`, the TGI in the experiment with OVCAR-5 ovarian, with EKVX NSCLC, with OVCAR-3 ovarian, in the experiment on SF-539 CNS, in the experiment on SK-MEL-2 melanoma and in the experiment with IGROV1 ovarian was greater than 100 µM throughout.

As for `CC(=O)NNc1nc(C)c(C(/C=C/c2ccc(Cl)cc2)=N/NC(=S)NN)s1`, the TGI in the experiment with OVCAR-5 ovarian, in the experiment with EKVX NSCLC, with HL-60(TB) leukemia, in the experiment on SF-539 CNS, with SK-MEL-2 melanoma and in the experiment with IGROV1 ovarian was greater than 100 µM throughout.

As to `CCCCCCCCCCCCOC(=S)NC`, the TGI in the experiment on HCC-2998 colon is 32 µM; with OVCAR-5 ovarian it was 25.3 µM; in the experiment with EKVX NSCLC, 36.7 µM; in the experiment with HL-60(TB) leukemia, greater than 100 µM; with SF-539 CNS, 33.5 µM; in the experiment on SK-MEL-2 melanoma it was 28.1 µM. The compound also returned a TGI in the experiment with IGROV1 ovarian of 38.9 µM.

Take `CCN1CCC(O)(c2ccc(Cl)c(Cl)c2)C(C(=O)c2ccc(Cl)c(Cl)c2)C1` (stereo not given): the TGI in the experiment on HCC-2998 colon is 35.1 µM; with OVCAR-5 ovarian, 35.7 µM; with EKVX NSCLC, 33.6 µM; in the experiment with HL-60(TB) leukemia, 33.4 µM; with OVCAR-3 ovarian, 27 µM; in the experiment with SF-539 CNS, 32.1 µM. Further, the values for the TGI with SK-MEL-2 melanoma and with IGROV1 ovarian were 31.9 µM and 41.3 µM, respectively.

As for `COc1cc(CCC(=O)NS(=O)(=O)c2ccccc2)cc(OC)c1OC`, the TGI in the experiment on HCC-2998 colon, in the experiment with OVCAR-5 ovarian, in the experiment on EKVX NSCLC, in the experiment on HL-60(TB) leukemia, in the experiment on OVCAR-3 ovarian and with SF-539 CNS was greater than 100 µM throughout. The TGI with SK-MEL-2 melanoma and in the experiment on IGROV1 ovarian was greater than 100 µM throughout.

Consider `CC(=O)OC1C/C(C)=C/[C@H](O)CC(C)/C=C/[C@@]2(C)CCC(C(C)(C)O)C12` (stereo not given in full), for which the TGI in the experiment with HCC-2998 colon, with OVCAR-5 ovarian, in the experiment on EKVX NSCLC, in the experiment on HL-60(TB) leukemia, in the experiment with OVCAR-3 ovarian and with SF-539 CNS was greater than 100 µM each time. Further, the TGI with SK-MEL-2 melanoma and in the experiment on IGROV1 ovarian was greater than 100 µM each time.

Regarding `COC(=O)C(C(=O)C(=O)Nc1ccc(C)cc1C)c1nc2ccc([N+](=O)[O-])cc2[nH]c1=O` (stereo not given), the TGI in the experiment on OVCAR-5 ovarian, in the experiment with EKVX NSCLC, with HL-60(TB) leukemia, in the experiment with SF-539 CNS, in the experiment with SK-MEL-2 melanoma and in the experiment with IGROV1 ovarian was greater than 100 µM in each case.

With `COC(=O)NN=C1C(C)(C)C(=NNC(=O)OC)C1(C)C`, the TGI with HCC-2998 colon, in the experiment on OVCAR-5 ovarian, with EKVX NSCLC, with HL-60(TB) leukemia, in the experiment on OVCAR-3 ovarian and in the experiment with SF-539 CNS was greater than 100 µM in each case. The TGI with SK-MEL-2 melanoma and in the experiment on IGROV1 ovarian was greater than 100 µM in each case.

Take `CC(C)(C)[Si](Nc1ccccc1)(c1ccccc1)c1ccccc1`: the TGI in the experiment on HCC-2998 colon came out at 30.7 µM; with EKVX NSCLC, 30.3 µM; in the experiment with HL-60(TB) leukemia, 31.3 µM; in the experiment with OVCAR-3 ovarian, 27.4 µM; in the experiment with SF-539 CNS it was 25 µM; in the experiment on SK-MEL-2 melanoma it was 35.8 µM. Also, the TGI in the experiment on IGROV1 ovarian stood at 28.3 µM.

With `CCCCCCCCCCCCCCCCCCOCC1(COP(=O)([O-])OCC[N+](C)(C)C)CCCO1` (stereo not given), the TGI stood at 4.68 µM in the experiment with HCC-2998 colon; 25.1 µM with OVCAR-5 ovarian; 5.24 µM in the experiment with HL-60(TB) leukemia; 15.7 µM in the experiment on OVCAR-3 ovarian; 29.4 µM in the experiment with SF-539 CNS; 22.8 µM in the experiment with SK-MEL-2 melanoma. In the experiment on IGROV1 ovarian, this compound showed a TGI of 6.63 µM.

Turning to `NC(=O)C12CCC1C1CCCCC12N1CCOCC1` (stereo not given), the TGI in the experiment on HCC-2998 colon, with OVCAR-5 ovarian, with EKVX NSCLC, with HL-60(TB) leukemia, with OVCAR-3 ovarian and in the experiment on SF-539 CNS was greater than 100 µM in each case. Further, the TGI in the experiment on SK-MEL-2 melanoma and in the experiment on IGROV1 ovarian was greater than 100 µM each time.

Turning to `O=C(Cc1nc2ccccc2s1)C(=O)Nc1ccc(Cl)cc1Cl`, the TGI in the experiment with HCC-2998 colon, in the experiment with OVCAR-5 ovarian, in the experiment on OVCAR-3 ovarian, in the experiment with SF-539 CNS, in the experiment on SK-MEL-2 melanoma and with IGROV1 ovarian was greater than 100 µM each time.

Regarding `CC(=O)Oc1cc(OC(C)=O)c2cc3c(cc2c1OC(C)=O)C(=O)C1(CCCC1)C3=O`, the TGI in the experiment on HCC-2998 colon amounted to 37.2 µM; in the experiment on EKVX NSCLC, 38 µM; in the experiment on HL-60(TB) leukemia, 73.6 µM; in the experiment on OVCAR-3 ovarian, 34.5 µM; in the experiment with IGROV1 ovarian, 32.4 µM.

For `C/C(CC(=O)Nc1ccc(NC(=O)/C(C)=N/NS(=O)(=O)c2ccc(C)cc2)cc1)=N\NS(=O)(=O)c1ccc(C)cc1`, the TGI in the experiment on HCC-2998 colon, in the experiment with OVCAR-5 ovarian, in the experiment on EKVX NSCLC, in the experiment with HL-60(TB) leukemia, in the experiment on OVCAR-3 ovarian and in the experiment with SF-539 CNS was greater than 100 µM in each case. For the same compound, the TGI with SK-MEL-2 melanoma and in the experiment on IGROV1 ovarian was greater than 100 µM throughout.

In the case of `O/N=C1/C(=C/c2ccc(Cl)cc2)CCCC1C(NO)c1ccc(Cl)cc1` (stereo not given), the TGI in the experiment with HCC-2998 colon is 47.4 µM; with EKVX NSCLC, 74.8 µM; with HL-60(TB) leukemia, 43.3 µM; with OVCAR-3 ovarian it was 31 µM; with SF-539 CNS, 88.1 µM; in the experiment on SK-MEL-2 melanoma, 68.5 µM. The TGI with IGROV1 ovarian was greater than 100 µM.
